Experimental data reported in ChEMBL document CHEMBL1129382, “Synthesis of chiral 1-(2'-amino-2'-carboxyethyl)-1,4-dihydro-6,7-quinoxaline-2,3-diones: alpha-amino-3-hydroxy-5-methyl-4-isoxazolepropionate receptor agonists and antagonists” (J Med Chem, 1996).

What was measured:
[1] = target: Glutamate receptor ionotropic, kainate (Rattus norvegicus) (UniProt P22756+Q01812+P42260+P42264+Q63273); test: Displacement of [3H]- Kainate from Ionotropic glutamate receptor kainate of rat brain homogenates.; format: tissue-based; design: concentration or dose not given beside the values; conditions: concentration not given here
[2] = target: Glutamate receptor ionotropic, AMPA (Rattus norvegicus) (UniProt P19491+P19492+P19493+P19490); test: Displacement of [3H]- AMPA from Ionotropic glutamate receptor of rat brain; design: concentration or dose not given beside the values; conditions: concentration not given here
[3] = target: Glutamate receptor ionotropic, kainate; test: Inhibition of [3H]- Kainate binding to Ionotropic glutamate receptor kainate in brain homogenates.; format: tissue-based, Rattus norvegicus
[4] = organism: Rattus norvegicus; test: Functional antagonist activity was determined by the ability to inhibit AMPA stimulated [3H]norepinephrine release from rat hippocampal slices.; conditions: Hippocampus
[5] = target: Glutamate receptor ionotropic, AMPA (Rattus norvegicus, UniProt P19490+P19491+P19492+P19493); test: Compound (100 uM) was evaluated for inhibition of Ionotropic glutamate receptor AMPA by using [3H]- AMPA; format: protein-complex assay

Row | SMILES | inhibition [1] | inhibition [2] | IC50 [3] | EC50 [4] | IC50 [5]
1 | N[C@H](Cn1c(=O)c(=O)[nH]c2ccccc21)C(=O)O [listing 1 of 3 here] | 5% | 77% |  |  | 
2 | Nc1ccccc1NC[C@@H](N)C(=O)O | 0% | 0% |  |  | 
3 | Nc1ccccc1NC[C@H](N)C(=O)O | 14% | 70% |  |  | 
4 | Cc1cc2[nH]c(=O)n(C(=O)[C@@H](N)CO)c2cc1C | 13% | 21% |  |  | 
5 | Cc1cc2[nH]c(=O)c(=O)n(C(=O)[C@H](N)CO)c2cc1C | 15% | 14% |  |  | 
6 | N[C@@H]1COC1=O | 4% | 0% |  |  | 
7 | N[C@H]1COC1=O | 5% | 11% |  |  | 
8 | Cc1cc2[nH]c(=O)c(=O)n(C(=O)[C@@H](N)CO)c2cc1C | 16% | 24% |  |  | 
9 | Cc1cc(N)c(NC[C@@H](N)C(=O)O)cc1C | 0% | 15% |  |  | 
10 | O=c1[nH]c2cc([N+](=O)[O-])c([N+](=O)[O-])cc2[nH]c1=O [DNQX] |  |  | 0.74 µM |  | 
11 | Cc1cc(N)c(NC[C@H](N)C(=O)O)cc1C | 7% | 15% |  |  | 
12 | O=[N+]([O-])c1cc2nc(O)c(O)nc2cc1[N+](=O)[O-] | 81% | 99% |  |  | 

The next lines start with the values.

Row | inhibition [1] | inhibition [2] | IC50 [3] | EC50 [4] | IC50 [5] | SMILES
13 | 27% | 95% | 0.23 µM |  |  | N[C@@H](Cn1c(=O)c(=O)[nH]c2ccccc21)C(=O)O
14 |  |  | 38 µM |  |  | N[C@H](Cn1c(=O)c(=O)[nH]c2ccccc21)C(=O)O [listing 2 of 3 here]
15 | 38% | 66% | 51 µM | 290 µM |  | Cc1cc2[nH]c(=O)c(=O)n(C[C@H](N)C(=O)O)c2cc1C
16 |  |  | 11 µM |  | 4 µM | Cc1cc(N)c(NC(=O)[C@@H](CO)NC(=O)OC(C)(C)C)cc1C
17 |  |  | 0.69 µM |  |  | N[C@H](Cn1c(=O)c(=O)[nH]c2ccccc21)C(=O)O [listing 3 of 3 here]
18 |  |  | 5 µM |  | 47 µM | Cc1cc2[nH]c(=O)c(=O)n(C[C@H](CO)NC(=O)OC(C)(C)C)c2cc1C
19 |  |  | 11 µM |  | 12 µM | Cc1cc2[nH]c(=O)c(=O)n(C(=O)[C@@H](CO)NC(=O)OC(C)(C)C)c2cc1C
20 | 27% | 62% | 22 µM | 300 µM |  | Cc1cc2[nH]c(=O)c(=O)n(C[C@@H](N)C(=O)O)c2cc1C
